Test results published in ChEMBL document CHEMBL6127103, “Benzoxaborinine, New Chemotype for Carbonic Anhydrase Inhibition: Ex Novo Synthesis, Crystallography, In Silico Studies, and Anti-Melanoma Cell Line Activity” (J Med Chem, 2024).
Calls of active or inactive are those of the source. The rule behind the calls is not given here.

Experiments:
[1] = biological target: T1, Carbonic anhydrase 2 (Homo sapiens, UniProt P00918); test: Inhibition of human carbonic anhydrase II assessed as inhibition constant incubated for 15 mins by stopped-flow carbon dioxide hydration assay
[2] = biological target: T2, Carbonic anhydrase 9 (Homo sapiens, UniProt Q16790)
Description: Inhibition of human carbonic anhydrase IX assessed as inhibition constant incubated for 15 mins by stopped-flow carbon dioxide hydration assay

[3] = system: A2058; test: Anti-melanoma activity against human A2058 cells assessed as inhibition of cell proliferation at 10 to 300 uM incubated for 72 hrs by MACSQUant analyzer; type: functional, cell-based; settings: dose 10-300 µM
[4] = biological target: T3, Carbonic anhydrase 1 (Homo sapiens, UniProt P00915); test: Inhibition of human carbonic anhydrase I assessed as inhibition constant incubated for 15 mins by stopped-flow carbon dioxide hydration assay
[5] = system: SK-MEL-2; test: Anti-melanoma activity against human SK-MEL-2 cells assessed as inhibition of cell proliferation at 10 to 300 uM incubated for 72 hrs by MACSQUant analyzer; type: functional, cell-based; settings: dose 10-300 µM
[6] = biological target: T4, Carbonic anhydrase 12 (Homo sapiens, UniProt O43570); test: Inhibition of human carbonic anhydrase XII assessed as inhibition constant incubated for 15 mins by stopped-flow carbon dioxide hydration assay
[7] = system: A-375; test: Anti-melanoma activity against human A-375 cells assessed as inhibition of cell proliferation incubated for 72 hrs by MACSQUant analyzer; type: functional, cell-based; settings: A-375, 72 h
[8] = system: A-375; test: Anti-melanoma activity against human A-375 cells assessed as inhibition of cell proliferation at 10 to 300 uM incubated for 72 hrs by MACSQUant analyzer; type: functional, cell-based; settings: dose 10-300 µM
[9] = biological target: T4, Carbonic anhydrase 12; test: Inhibition of human carbonic anhydrase XII catalytic domain assessed as inhibition constant incubated for 15 to 360 mins by stopped-flow CO2 hydration assay
[10] = biological target: T2, Carbonic anhydrase 9; test: Inhibition of human carbonic anhydrase IX catalytic domain assessed as inhibition constant incubated for 15 to 360 mins by stopped-flow CO2 hydration assay
[11] = biological target: T3, Carbonic anhydrase 1; test: Inhibition of human carbonic anhydrase I assessed as inhibition constant incubated for 15 to 360 mins by stopped-flow CO2 hydration assay
[12] = biological target: T1, Carbonic anhydrase 2; test: Inhibition of human carbonic anhydrase II assessed as inhibition constant incubated for 15 to 360 mins by stopped-flow CO2 hydration assay
[13] = system: A2058; test: Anti-melanoma activity against human A2058 cells assessed as inhibition of cell proliferation at 200 uM incubated for 72 hrs by MACSQUant analyzer; type: functional, cell-based
[14] = system: A-375; test: Anti-melanoma activity against human A-375 cells assessed as inhibition of cell proliferation at 200 uM incubated for 72 hrs by MACSQUant analyzer; type: functional, cell-based
[15] = system: SK-MEL-2; test: Anti-melanoma activity against human SK-MEL-2 cells assessed as inhibition of cell proliferation at 200 uM incubated for 72 hrs by MACSQUant analyzer; type: functional, cell-based
[16] = system: A-375; test: Anti-melanoma activity against human A-375 cells assessed as inhibition of cell proliferation at 100 uM incubated for 72 hrs by MACSQUant analyzer; type: functional, cell-based
[17] = system: SK-MEL-2; test: Anti-melanoma activity against human SK-MEL-2 cells assessed as inhibition of cell proliferation at 100 uM incubated for 72 hrs by MACSQUant analyzer; type: functional, cell-based
[18] = system: A2058; test: Anti-melanoma activity against human A2058 cells assessed as inhibition of cell proliferation at 100 uM incubated for 72 hrs by MACSQUant analyzer; type: functional, cell-based

T3 sequence (P00915 whole entry): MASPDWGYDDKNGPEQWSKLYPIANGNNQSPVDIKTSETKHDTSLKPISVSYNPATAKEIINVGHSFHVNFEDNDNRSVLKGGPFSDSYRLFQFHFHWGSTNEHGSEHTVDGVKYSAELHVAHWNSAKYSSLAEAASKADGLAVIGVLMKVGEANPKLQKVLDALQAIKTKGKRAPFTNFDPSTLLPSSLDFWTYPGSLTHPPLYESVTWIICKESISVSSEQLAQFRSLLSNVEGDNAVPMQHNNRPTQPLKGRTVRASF
T4 sequence (O43570 whole entry): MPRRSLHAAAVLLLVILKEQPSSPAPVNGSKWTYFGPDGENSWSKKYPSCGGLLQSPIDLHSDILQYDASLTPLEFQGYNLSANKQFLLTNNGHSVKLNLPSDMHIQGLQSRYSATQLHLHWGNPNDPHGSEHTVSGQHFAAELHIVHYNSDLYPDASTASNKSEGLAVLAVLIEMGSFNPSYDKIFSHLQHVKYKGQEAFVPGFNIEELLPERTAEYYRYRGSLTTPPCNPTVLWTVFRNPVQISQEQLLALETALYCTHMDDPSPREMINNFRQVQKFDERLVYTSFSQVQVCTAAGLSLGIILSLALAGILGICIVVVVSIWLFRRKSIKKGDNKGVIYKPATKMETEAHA

Row | Compound | Ki [1] [nM] | Ki [2] [nM] | Ki [4] [nM] | Ki [6] [nM] | Ki [9] [nM] | Ki [10] [nM] | other results
1 | O=C(NCc1ccccc1)Nc1ccc2c(c1)B(O)OCC2 | 112 | 163 | 637 | 80.7 |  |  | Activity [3]: Active; Activity [5]: Active; IC50 [7]: 31600 nM; Activity [8]: Active
2 | O=C(Nc1ccccc1)Nc1ccc2c(c1)B(O)OCC2 | 262 | 268 | 19000 | 210 |  |  | 
3 | O=C(Nc1ccc(C(F)(F)F)cc1)Nc1ccc2c(c1)B(O)OCC2 | 306 | 139 | 20700 | 354 |  |  | 
4 | O=[N+]([O-])c1ccc2c(c1)B(O)OC2 |  |  |  |  | 92 | 94 | 
5 | OB1OCc2ccc(NC(=S)NCc3ccccc3)cc21 |  |  |  |  | 42 | 610 | Ki [11]: 380 nM
6 | O=C(Nc1ccc(C(F)(F)F)cc1)Nc1ccc2c(c1)B(O)OC2 |  |  |  |  | 93 | 845 | 
7 | OB1OCCc2ccc(NC(=S)NCc3ccccc3)cc21 | 41.7 | 52.8 | 614 | 69 |  |  | Activity [3]: Active; Activity [5]: Active; IC50 [7]: 126000 nM; Activity [8]: Active
8 | OB1OCCc2ccc(NC(=S)Nc3ccccc3)cc21 | 295 | 312 | 798 | 191 |  |  | 
9 | OB1OCc2ccc(NC(=S)Nc3ccccc3)cc21 |  |  |  |  | 76 | 436 | Ki [12]: 1150 nM; Ki [11]: 548 nM
10 | NS(=O)(=O)c1ccc(NC(=O)Nc2ccc(F)cc2)cc1 [SLC-0111] |  |  |  |  |  |  | Activity [13]: Active; Activity [14]: Active; Activity [15]: Active; IC50 [7]: 111000 nM
11 | Nc1ccc2c(c1)B(O)OC2 |  |  |  |  | 640 | 813 | 
12 | O=C(NCc1ccccc1)Nc1ccc2c(c1)B(O)OC2 |  |  |  |  | 184 | 925 | 
13 | O=C(Nc1ccccc1)Nc1ccc2c(c1)B(O)OC2 |  |  |  |  | 240 | 1060 | 
14 | OB1OCCc2ccccc21 [BENZOXABORIN] | 1950 | 9840 | 3870 | 754 |  |  | 
15 | O=[N+]([O-])c1ccc2c(c1)B(O)OCC2 | 983 | 25 | 44500 | 920 |  |  | 
16 | O=[N+]([O-])c1ccc(NC(=S)Nc2ccc3c(c2)B(O)OCC3)cc1 | 452 | 63.2 | 523 | 46.4 |  |  | 
17 | O=C(Nc1ccc(F)cc1)Nc1ccc2c(c1)B(O)OCC2 | 85.9 | 451 | 3490 | 278 |  |  | Activity [16]: Active; Activity [17]: Active; Activity [18]: Active; IC50 [7]: 132000 nM
18 | OB1OCc2ccc(NC(=S)Nc3ccc(F)cc3)cc21 |  |  |  |  | 89 | 336 | 
19 | OB1OCc2ccccc21 [BENZOXABOROLE] |  |  |  |  | > 50000 | > 50000 | 
20 | OB1OCCc2ccc(NC(=S)Nc3ccc(C(F)(F)F)cc3)cc21 | 44.9 | 349 | 16800 | 82 |  |  | 
21 | O=C(Nc1ccc(F)cc1)Nc1ccc2c(c1)B(O)OC2 |  |  |  |  | 175 | 843 | 
22 | Nc1ccc2c(c1)B(O)OCC2 | 2920 | 45 | > 100000 | 2310 |  |  | 
23 | OB1OCCc2ccc(NC(=S)Nc3ccc(F)cc3)cc21 | 434 | 88.5 | 1590 | 151 |  |  | 
